# Patent US11168084B2, “Purine based compounds as toll-like receptor 9 antagonist” (COUNCIL OF SCIENTIFIC & INDUSTRIAL RESEARCH, priority 2017, dated 2021)
# Molecular target: T1, toll-like receptor 9 (TLR9) (Homo sapiens, UniProt Q9NR96)
# T1 construct: we isolated PBMCs from venous blood collected from healthy donors using density gradient centrifugation; endogenous in cells; host or cells: primary human PBMC (plasmacytoid dendritic cells) from healthy donors
# T1 sequence (Q9NR96 26-1032): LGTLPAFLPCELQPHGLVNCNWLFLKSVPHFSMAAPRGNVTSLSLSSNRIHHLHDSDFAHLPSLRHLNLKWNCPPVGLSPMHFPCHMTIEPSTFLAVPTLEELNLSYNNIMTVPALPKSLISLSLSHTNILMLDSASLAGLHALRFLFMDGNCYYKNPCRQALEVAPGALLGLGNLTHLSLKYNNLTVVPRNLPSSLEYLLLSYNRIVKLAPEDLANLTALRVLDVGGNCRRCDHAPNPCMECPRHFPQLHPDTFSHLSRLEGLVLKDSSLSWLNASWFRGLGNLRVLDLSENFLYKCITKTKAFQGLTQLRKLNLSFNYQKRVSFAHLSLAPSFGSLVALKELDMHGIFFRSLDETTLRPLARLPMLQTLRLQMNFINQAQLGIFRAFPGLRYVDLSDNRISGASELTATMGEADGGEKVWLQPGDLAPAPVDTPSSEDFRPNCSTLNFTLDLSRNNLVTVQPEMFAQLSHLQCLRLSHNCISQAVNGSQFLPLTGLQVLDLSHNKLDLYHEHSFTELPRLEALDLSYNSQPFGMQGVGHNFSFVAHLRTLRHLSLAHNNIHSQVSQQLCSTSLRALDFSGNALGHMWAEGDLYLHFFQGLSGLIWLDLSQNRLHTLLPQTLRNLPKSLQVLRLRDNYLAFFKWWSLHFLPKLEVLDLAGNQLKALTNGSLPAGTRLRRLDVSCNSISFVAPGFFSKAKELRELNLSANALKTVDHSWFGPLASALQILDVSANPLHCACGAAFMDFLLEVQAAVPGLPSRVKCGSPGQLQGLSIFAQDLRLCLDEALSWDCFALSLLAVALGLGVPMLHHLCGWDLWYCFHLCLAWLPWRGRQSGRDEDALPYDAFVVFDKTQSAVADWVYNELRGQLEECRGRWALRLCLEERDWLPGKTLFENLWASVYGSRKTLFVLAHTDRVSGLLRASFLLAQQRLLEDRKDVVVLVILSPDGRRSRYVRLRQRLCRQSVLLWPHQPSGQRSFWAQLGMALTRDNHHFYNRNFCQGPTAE
# Assay: Screening of TLR9 antagonistic activity: IFN-alpha production from human PBMC in response to CpGA (ELISA)
# Assay type: cell-based
# Conditions: TLR9 antagonism; Table 2 does not say which of the three TLR9 assays
# Text: The principle of the screening assay was designed based on the production of Type I interferons (IFN-alpha) from human PBMCs, which results almost exclusively from TLR9 triggering on the PDCs by type A CpG oligonucleotides (CpGA). PBMCs were isolated from venous blood collected from healthy donors using density gradient centrifugation.
# A medium throughput biological assay based on toll-like receptor 9 activation has been designed in primary human immune cells to screen the synthesized small molecules with general formula (I) for toll-like receptor 9 (TLR9) antagonism. Among the immune cell subsets circulating in the peripheral blood, two cell subsets plasmacytoid dendritic cells (PDCs) and B lymphocytes has significant expression of TLR9. Plasmacytoid dendritic cells are capable of producing type I interferons (e.g. IFN-alpha) in response to TLR9 ligands. Type A and type B unmethylated cytosine-guanine rich DNA oligonucleotides (CpG oligonucleotides) are the bonafide ligands for TLR9.
# In the screening assay we isolated PBMCs from venous blood collected from healthy donors using density gradient centrifugation. PBMCs were cultured the at 2-3*10^5 cells/200 ul/well in a 96 well plate. TLR9 agonist CpGA was added at 1 uM in presence of escalating doses of the synthesized small molecules (0 uM, 0.1 uM, 1 uM, 5 uM, 10 uM and 20 uM). The supernatants was collected after overnight culture from the culture wells and looked for IFN-alpha using enzyme linked immunosorbent assay (ELISA). […] For the biological validation of TLR9 antagonism the bona fide TLR9 agonist CpG oligonucleotides were used.
row,Compound,IC50 [nM]
1,"CCN1CCN(CCCn2cnc3c(N4CCN(CC)CC4)nc(NCc4ccc(OC)cc4)nc32)CC1 [Compound 5, 6-(4-ethylpiperazin-1-yl)-9-(3-(4-ethylpiperazin-1-yl)propyl)-N-(4-methoxybenzyl)-9H-purin-2-amine]",203
2,"CCN1CCN(CCCn2cnc3c(N4CCN(CC)CC4)nc(NCc4ccc(F)cc4)nc32)CC1 [Compound 6, 6-(4-ethylpiperazin-1-yl)-9-(3-(4-ethylpiperazin-1-yl)propyl)-N-(4-fluorobenzyl)-9H-purin-2-amine]",470
3,"CCN1CCN(CCCn2cnc3c(N4CCN(CC)CC4)nc(NCc4ccc(N(CC)CC)cc4)nc32)CC1 [Compound 7, N-(4-(diethylamino)benzyl)-6-(4-ethylpiperazin-1-yl)-9-(3-(4-ethylpiperazin-1-yl)propyl)-9H-purin-2-amine]",438
4,CCN1CCN(CCCn2cnc3c(N4CCN(CC)CC4)nc(N4CCCC4)nc32)CC1 [Compound 9],1830
5,"CCN1CCN(CCCn2cnc3c(N4CCN(CC)CC4)nc(NC(=O)C4CCCN4)nc32)CC1 (stereo not shown) [Compound 12, N-(6-(4-ethylpiperazin-1-yl)-9-(3-(4-ethylpiperazin-1-yl)propyl)-9H-purin-2-yl) pyrrolidine-2-carboxamide]",378
6,"CCN1CCN(CCCn2cnc3c(N4CCN(C5CCCC5)CC4)nc(NCc4ccc(F)cc4)nc32)CC1 [Compound 25, 6-(4-cyclopentylpiperazin-1-yl)-9-(3-(4-ethylpiperazin-1-yl)propyl)-N-(4-fluorobenzyl)-9H-purin-2-amine]",254
7,"Nc1nc(N2CCN(C3CCCC3)CC2)c2ncn(CCCN3CCCC3)c2n1 [Compound 29, 6-(4-cyclopentylpiperazin-1-yl)-9-(3-(pyrrolidin-1-yl)propyl)-9H-purin-2-amine]",122
8,"CCN1CCN(CCCn2cnc3c(N4CCN(C(=O)C5CCCC5)CC4)nc(NCc4ccc(N(CC)CC)cc4)nc32)CC1 [Compound 38, Cyclopentyl(4-(2-(4-(diethylamino)benzylamino)-9-(3-(4-ethylpiperazin-1-yl)propyl)-9H-purin-6-yl)piperazin-1-yl)methanone]",8800
9,Iso-butyl(1-(6-(4-ethylpiperazin-1-yl)-9-(3-(4-ethylpiperazin-1-yl)propyl)-9H-purin-2-yl)amino)-1-oxo-3-phenylpropan-2-yl)carbamate [Compound 15],470

# Results, then the compound that gave them:
row,IC50 [nM],Compound
1,188,"CCN1CCN(CCCn2cnc3c(N4CCN(CC)CC4)nc(N)nc32)CC1 [Compound 4, 6-(4-ethylpiperazin-1-yl)-9-(3-(4-ethylpiperazin-1-yl)propyl)-9H-purin-2-amine]"
2,140,"CCN1CCN(CCCn2cnc3c(N4CCN(CC)CC4)nc(NCc4ccccc4)nc32)CC1 [Compound 8, N-benzyl-6-(4-ethylpiperazin-1-yl)-9-(3-(4-ethylpiperazin-1-yl)propyl)-9H-purin-2-amine]"
3,339,"CCN1CCN(CCCn2cnc3c(N4CCN(CC)CC4)nc(NC(=O)c4ccccc4)nc32)CC1 [Compound 10, N-(6-(4-ethylpiperazin-1-yl)-9-(3-(4-ethylpiperazin-1-yl)propyl)-9H-purin-2-yl)benzamide]"
4,145,CCN1CCN(CCCn2cnc3c(N4CCN(C5CCCC5)CC4)nc(NCc4ccc(N(CC)CC)cc4)nc32)CC1 [Compound 24]
5,120,"CCN1CCN(CCCn2cnc3c(N4CCN(C5CCCC5)CC4)nc(NCc4ccc(OC)cc4)nc32)CC1 [Compound 26, 6-(4-cyclopentylpiperazin-1-yl)-9-(3-(4-ethylpiperazin-1-yl)propyl)-N-(4-methoxybenzyl)-9H-purin-2-amine]"
6,56,"CCN1CCN(CCCn2cnc3c(N4CCN(C5CCCC5)CC4)nc(NC(=O)c4ccc(CN(C)C)cc4)nc32)CC1 [Compound 27, N-(6-(4-cyclopentylpiperazin-1-yl)-9-(3-(4-ethylpiperazin-1-yl)propyl)-9H-purin-2-yl)-4-((dimethylamino)methyl)benzamide]"
7,241,"COc1ccc(CNc2nc(N3CCN(C4CCCC4)CC3)c3ncn(CCCN4CCCC4)c3n2)cc1 [Compound 30, 6-(4-cyclopentylpiperazin-1-yl)-N-(4-methoxybenzyl)-9-(3-(pyrrolidin-1-yl)propyl)-9H-purin-2-amine]"
8,5,"CN(C)Cc1ccc(C(=O)Nc2nc(N3CCN(C4CCCC4)CC3)c3ncn(CCCN4CCCC4)c3n2)cc1 [Compound 31, N-(6-(4-cyclopentylpiperazin-1-yl)-9-(3-(pyrrolidin-1-yl)propyl)-9H-purin-2-yl)-4-((dimethylamino)methyl)benzamide]"
9,100,"Fc1ccc(CNc2nc(N3CCN(C4CCCC4)CC3)c3ncn(CCCN4CCCC4)c3n2)cc1 [Compound 32, 6-(4-cyclopentylpiperazin-1-yl)-N-(4-fluorobenzyl)-9-(3-(pyrrolidin-1-yl)propyl)-9H-purin-2-amine]"
10,80,"CCN1CCN(c2nc(NCc3ccc(OC)cc3)nc3c2ncn3CCCN2CCCC2)CC1 [Compound 34, 6-(4-ethylpiperazin-1-yl)-N-(4-methoxybenzyl)-9-(3-(pyrrolidin-1-yl)propyl)-9H-purin-2-amine]"
